For this assay, the system named is Macrophage cell lines. The assay is described as follows: In vitro macrophage adhesion assay (Example 8). The note with it: compound conjugated to NHS-activated 96 well plate; 50000 cells per well, 37 degrees Celsius, one hour; averaged across eight wells; normalized PEG750=0, Fibronectin=100. Type of assay: cell-based. As to the method:
Exemplary compounds of the invention were prepared at a concentration of 0.1M in a 0.1M bicarbonate buffer (pH 8.2) containing 25% v/v DMSO. Control solutions of 0.1M PEG750-amine and 0.01% fibronectin were prepared in 0.1M bicarbonate buffer (pH 8.2).
Each small molecule amine solution (100 μL) was pipetted into eight wells of an NHS-activated 96 well plate and incubated 2 hours at room temperature. Each plate consisted of two lanes spiked with the two control solutions and ten lanes spiked with test molecule solutions. The test wells were rinsed once with 200 μL 0.1M bicarbonate buffer (pH 8.2) containing 25% v/v DMSO followed by three washes with 200 μL Hyclone™ water. The control wells were rinsed with 0.1M bicarbonate buffer (pH 8.2) followed by three 200 μL Hyclone™ water washes. Plates were dried at room temperature in a sterile hood and stored at 4-8° C. until use.
Macrophage cell lines were plated onto 96 well plates, 50000 cells per well, and incubated at 37 degrees Celsius for one hour. Plates were then placed at a 45-degree angle and washed by applying fluid shear 5 times. Non-adherent and adherent cells were then separated and treated with a Cell titer-glo kit to quantify the number of live cells. Live cells were detected using luminescence-based plate reader measurements. The resulting cell adhesion values for each small molecule amine was averaged across the eight wells and standard deviations calculated. The average cell adhesion value for each small molecule was normalized relative to the averages for the two controls on each plate: PEG750=0, Fibronectin (FN)=100. Small molecule normalized value=(SM-PEG750)/(FN-PEG750). Results are expressed as a percentage of cells adhered on the plates. % Percent adherent cells=(Luminescence of adhered cells)/(Luminescence of adhered+non-adhered cells). In this table, “A” represents a cell adhesion value of <0% to about 10%; “B” represents a cell adhesion value of 10% to about 50%; and “C” represents a cell adhesion value of 50% to 100%.
For the compound `NCCOCCOCCOCCn1cc(CN2CCS(=O)(=O)CC2)nn1` [Compound 3037, 4-((1-(2-(2-(2-(2-aminoethoxy)ethoxy)ethoxy)ethyl)-1H-1,2,3-triazol-4-yl)methyl)thiomorpholine 1,1-dioxide], the “cell adhesion value (percentage of cells adhered on the plates)” value is “A (a cell adhesion value of <0% to about 10%)”.
As for `C=CC(=O)NCc1ccc(-n2cc(COC3CCCCO3)nn2)cc1` (stereo not drawn) [Compound 3040, N-(4-(4-(((tetrahydro-2H-pyran-2-yl)oxy)methyl)-1H-1,2,3-triazol-1-yl)benzyl)acrylamide], the entry is “C (a cell adhesion value of 50% to 100%)”; as for Fibronectin [reference compound], “C (a cell adhesion value of 50% to 100%)”.
